pIC50: −log10 of the molar value.
Each compound was assayed on P. falciparum 3D7 growth, pLDH absorbance (assay: blood-stage malaria parasite growth potency – strain 3D7, dose response (AID 2305)).

Point of comparison: `CCOC(=O)NOC(C(=O)O)c1ccccc1` (stereo unspecified), pIC50 6.72. Against it:
- CC(C)(C)OC(=O)NCc1ccc(Nc2nnc(-c3cccc(C(=O)NCc4cc(C(F)(F)F)cc(C(F)(F)F)c4)c3)o2)cc1 — 0.65 log units lower, 6.07
- Cc1cc(NC(=O)Nc2ccc(N(C)C)cc2)c2cc(Cl)ccc2n1 — 0.65 log units lower, 6.07
- O=C(Nc1ccc(Oc2ccccc2)cc1)N1CCC(CN2CCC(c3c[nH]c4ccccc34)CC2)CC1 — 0.51 log units lower, 6.21
- COc1cc(CNC[C@@H](O)[C@H](Cc2ccccc2)NC(=O)c2cc(C3CCCC3)cc(N3CCCCS3(=O)=O)c2)cc(OC)c1 — 0.57 log units lower, 6.15
- CCn1cc(-c2cc(C(=O)Nc3ccc(OC)cc3C)c3ccccc3n2)c(C)n1 — 0.71 log units lower, 6.01
- CCCC(=O)Nc1ccc(OCCCN(Cc2ccccc2F)c2ccc(C#N)c(C(F)(F)F)c2)cc1 — 0.49 log units lower, 6.23
- O=C1C([N+](=O)[O-])=C(O)c2cccc(F)c21 — within 0.2 log units, 6.82
- Cc1sc(C)c(CNCCCNc2cc(=O)c3ccccc3[nH]2)c1Br — 0.66 log units lower, 6.06
- Cc1cccc2[nH]c(-c3ccc(-c4ccc(NC(=O)C(=O)c5cccn5C)cc4)cc3)nc12 — 0.63 log units lower, 6.09
- O=C(CNc1ccc(Cl)c(S(=O)(=O)N2CCCC2)c1)Nc1ccc(Br)cc1F — 0.23 log units lower, 6.49
- CCCCN1CCCC[C@H]1[C@@H](O)c1ccnc2ccc(OCC)cc12 — 0.61 log units lower, 6.11
- O=C(Nc1cccc(-c2ccc(CN3CCC(O)CC3)cc2)c1)c1cccc(Cl)c1 — 0.60 log units lower, 6.12
- COc1ccc(-c2cccc(NC(=O)c3ccc(C#N)cc3)c2)cc1CN1CCN(C)CC1 — 0.72 log units lower, 6.00
- Cc1cc(NCCCCCCN)nc(Nc2ccc(Cl)cc2)n1 — 0.37 log units lower, 6.35
- CCN(CCCN1CCCC1)c1cc(C)nc(Nc2ccc(Cl)cc2)n1 — 0.25 log units lower, 6.47
- O=C(NCCCCN1CCN(c2nsc3ccccc23)CC1)c1ccccc1C(=O)NCCCCN1CCN(c2nsc3ccccc23)CC1 — 0.67 log units lower, 6.05
- COc1ccc(CSC2CCCCC23NC(=S)NC3=S)cc1 (stereo unspecified) — 0.65 log units lower, 6.07
- Nc1c2c(nc3cc(NC(=O)c4ccc([N+](=O)[O-])cc4)ccc13)CCCC2 — 0.39 log units lower, 6.33
- COc1ccc2nccc([C@@H](O)CN3CCC(NCc4cnc5c(c4)NC(=O)CS5)CC3)c2c1 — 0.65 log units lower, 6.07
- CCCCn1c(C(C)Oc2ccc(Cl)cc2Cl)nc2cc(S(N)(=O)=O)ccc21 (stereo unspecified) — 0.57 log units lower, 6.15
- Clc1ccc2c(NCc3ccc4c(c3)OCO4)ccnc2c1 — within 0.2 log units, 6.57
- Cc1noc(C)c1-c1cccc(CNCc2cccc(-c3cccc(-c4nc5ccc(F)cc5[nH]4)c3)c2)c1 — within 0.2 log units, 6.74
- COc1cc(Nc2ccnc3ccc(C(F)(F)F)cc23)cc(OC)c1OC — 0.57 log units lower, 6.15
- COc1cc(C=CC(=O)N2CCC3(CC2)CC(=O)c2ccccc2O3)cc(OC)c1OC — 0.60 log units lower, 6.12
- CNCCNCc1ccc(-c2cccc(-c3nc4ccc(F)cc4[nH]3)c2)cc1 — 0.77 log units lower, 5.95
- Cc1ccc(CC(C)NCC(O)c2cccc(C(F)(F)F)c2)c(C)c1 (stereo unspecified) — 0.57 log units lower, 6.15
- FC(F)(F)c1ccc2nccc(NCc3ccccc3)c2c1 — 0.78 log units lower, 5.94
- COc1ccc2nccc([C@@H](O)CN3CCC(NCc4cc5cc([N+](=O)[O-])ccc5[nH]4)CC3)c2c1 — 0.20 log units higher, 6.92
- O=C(CNC(=O)c1ccc(O)cc1)Nc1ccc(-c2cccc(-c3nc4ccc(C(F)(F)F)cc4[nH]3)c2)cc1 — 0.65 log units lower, 6.07
- NC1CCN(Cc2cccc(-c3ccc(-c4nc5ccc(C(F)(F)F)cc5[nH]4)cc3)c2)C1 (stereo unspecified) — 0.57 log units lower, 6.15
- O=C(Nc1ccc(C2=NC3CCCCC3N2)cc1)Nc1ccc(C2=NC3CCCCC3N2)cc1 (stereo unspecified) — within 0.2 log units, 6.74
- CN(C)CCCn1cncc1-c1ccc2ncnc(Nc3ccc4c(cnn4Cc4ccccc4)c3)c2c1 — 0.58 log units lower, 6.14
- O=C(NC1CC1)c1ccc(N2CCCC(COc3ccccc3F)C2)nc1 (stereo unspecified) — 0.67 log units lower, 6.05
- CC(=O)Nc1cccc(CN(Cc2ccc(-c3ccc(CNCc4cccnc4)cn3)cc2)C(=O)Cc2cccnc2)c1 — 0.63 log units lower, 6.09
- COc1cc2c(cc1O)[C@@H]1[C@H](O)[C@@H](O)C=C3CCN(C2)[C@H]31 — 0.72 log units lower, 6.00
- COc1cc(CN2CCC(C(=O)Nc3ccc(-c4cccc(C)c4)cc3)CC2)ccc1O — 0.77 log units lower, 5.95
- Cc1cc(Oc2cc(NC(=O)c3sc4ncn(Cc5ccccc5F)c(=O)c4c3C)cc([N+](=O)[O-])c2)ccc1Cl — 0.78 log units lower, 5.94
- c1ncc(CCNc2nc(Nc3ccc4c(c3)OCO4)nc(NC3CCCC3)n2)[nH]1 — 0.78 log units lower, 5.94
- COc1cc(NC(=O)c2sc(-c3ccc(Cl)cc3)cc2NC(=O)N2CCCC2)ccc1OCCN1CCCC1 — 0.48 log units lower, 6.24
- NS(=O)(=O)c1cccc(-c2ccc3ncc(N4CCOCC4)nc3c2)c1 — 0.72 log units lower, 6.00
- O=C(NCCCCNCC(Cc1cccc(O)c1)c1ccccc1)c1ccc(NC(=O)c2ccc(Cl)cc2)cc1 (stereo unspecified) — 0.74 log units lower, 5.98
- NCCNc1ccc([N+](=O)[O-])cc1C(=O)Nc1cccc(C(F)(F)F)c1 — 0.68 log units lower, 6.04
- Cc1cc(OCC2CCN(c3ncc(C(=O)NC4CC4)cc3Cl)CC2)ccc1F — 0.62 log units lower, 6.10
- O=C(Nc1cccc(F)c1)N1CCC(CN2CCOC(c3ccccc3)(c3ccccc3)C2)CC1 — within 0.2 log units, 6.70
- CC(C)N1CCC(N(Cc2ccc(-c3ccc(Cl)cc3)cc2)C(=O)Cn2c(CCc3cccc(F)c3F)nc(=O)c3ccccc32)CC1 — 0.69 log units lower, 6.03
- Cc1[nH]c(C)c(-c2ccc(-c3ccccc3F)nc2)c(=O)c1Cl — within 0.2 log units, 6.60
- O=C(Nc1ccc(F)c(Cl)c1)NC1CCN(c2ccnc3cc(Cl)ccc23)C1 (stereo unspecified) — within 0.2 log units, 6.68
- COc1ccc(O)c(C(=O)NCCc2ccc(OC)c(-c3ccc(C(C)(C)C)cc3)c2)c1 — 0.73 log units lower, 5.99
- CC1(C)CN2CCCC2c2cc(NC(=O)/C=C/c3ccccc3Cl)ccc21 (stereo unspecified) — 0.72 log units lower, 6.00
- Nc1cc(-c2ccc3ccccc3c2)nc2ccccc12 — 0.57 log units lower, 6.15
- COC(=O)/C=C/c1ccc(CC(C)NCC(O)c2cccc(Cl)c2)cc1 (stereo unspecified) — 0.60 log units lower, 6.12
- CO/C(=C\C=C\c1cc2cc(Cl)c(Cl)cc2[nH]1)C(=O)NC1CCN(CCCc2ccccc2)CC1 — 0.61 log units lower, 6.11
- CCc1cccc2c(C#N)cn(CC(=O)Nc3ccc(OC)cc3)c12 — 0.61 log units lower, 6.11
- CCOC(=O)c1cnc2c(OC)cc(OC)c(Cl)c2c1Nc1ccccc1 — 0.66 log units lower, 6.06
- CCCOc1cccc(C(=O)N[C@@H](Cc2ccccc2)[C@H](O)CNCc2ccccc2OC)c1 — 0.66 log units lower, 6.06
- O=C(NCc1ccc(F)cc1)Nc1cccc(-c2ccc(-c3nc4ccc(F)cc4[nH]3)cc2)c1 — within 0.2 log units, 6.64
- CC[C@H]1CN2CC[C@H]1C[C@H]2[C@H](O)c1cc(-c2cccc(F)c2)nc2ccc(OC)cc12 — 0.50 log units higher, 7.22
- COc1ccc2nccc([C@@H](O)CN3CCC(NC(=O)C(c4ccsc4)N4CCN(c5ccccc5)CC4)CC3)c2c1 (stereo partly specified) — 0.36 log units lower, 6.36
- CN(c1ccccc1)c1ccnc(/N=C(\N)Nc2ccc(Cl)cc2)n1 — 0.76 log units lower, 5.96
- CN1CCN(CC2(Nc3nccc(NCc4ccc(Cl)cc4Cl)n3)CCCCC2)CC1 — 0.49 log units lower, 6.23
- Cc1nc(C)c(CC(=O)Nc2ccc(-c3cccc(-c4nc5ccc(C(F)(F)F)cc5[nH]4)c3)cc2)s1 — 0.68 log units lower, 6.04
- CCNc1cc(C(=O)N[C@@H](Cc2ccccc2)[C@H](O)CNC2(Cc3cccc(Cl)c3)CCC2)cc(N2CCCCS2(=O)=O)c1 — 0.79 log units lower, 5.93
- Cc1cc2nc(-c3ccc(/C=C/C(=O)NC4CCN(Cc5ccccc5)CC4)cc3)[nH]c2cc1C — 0.49 log units lower, 6.23
- O=C(N[C@H]1CCN(Cc2ccc(OCCN3CCCC3)c(Cl)c2)C1)c1ccc(Cl)c(Cl)c1 — 0.68 log units lower, 6.04
- CCN(CC)CCN(Cc1ccc(-c2ccc(C(F)(F)F)cc2)cc1)C(=O)Cn1c(CCc2ccccc2F)nc(=O)c2ccccc21 — 0.69 log units lower, 6.03
- CCCCN1CCN(CCCCNc2c3ccccc3nc3ccccc23)CC1 — within 0.2 log units, 6.77
- COc1ccc2nc(C)cc(Nc3ccc(Cl)c(Cl)c3)c2c1 — 0.36 log units lower, 6.36
- COc1ccc2nccc(N3CCC(NCCNCc4cc5c(cn4)OCCO5)C3)c2n1 (stereo unspecified) — 0.48 log units lower, 6.24
- NC(=O)c1ccsc1NC(=O)CNC(c1ccccc1)c1ccccc1 — 0.69 log units lower, 6.03
- O=C(Nc1cccc(CN2CCN(C(=O)c3ccccc3)CC2)c1)c1cccs1 — 0.21 log units lower, 6.51
- CC(C)(C)S[C@H]1S[C@H](SC(C)(C)C)[C@@H](OC(=O)c2ccccc2)C(OC(=O)c2ccccc2)[C@H]1OC(=O)c1ccccc1 (stereo partly specified) — 0.69 log units lower, 6.03
- COc1cccc(CNc2noc(-c3c(-c4ccccc4)noc3C)n2)c1OC — 0.66 log units lower, 6.06
- c1ccc(-c2ccc(-c3csc(Nc4ccncc4)n3)cc2)cc1 — 0.72 log units lower, 6.00
- Cc1c(C(=O)[C@@H]2C[C@H]2CN2CCC(N3CCCCC3)CC2)sc2ccccc12 — 0.73 log units lower, 5.99
- CN1CCC(C(=O)Nc2cccc(-c3cccc(-c4nc5ccc(F)cc5[nH]4)c3)c2)CC1 — 0.56 log units lower, 6.16
- Cc1cccc2[nH]c(-c3cccc(-c4ccc(NC(=O)N[C@@H]5C[C@H]5c5ccccc5)cc4)c3)nc12 — 0.58 log units lower, 6.14
- CC(C)Nc1cc(C(=O)N[C@@H](Cc2ccccc2)[C@H](O)CNC2CCCCC2)cc(N2CCCCS2(=O)=O)c1 — 0.28 log units higher, 7.00
- FC(F)(F)c1cc(CNCCCNc2nc3ccncc3[nH]2)ccc1Cl — 0.72 log units lower, 6.00
- CS(=O)(=O)Cc1cccc(Nc2ncc(Cl)c(Nc3cccnc3C(N)=O)n2)c1 — within 0.2 log units, 6.77
- Cc1nn(C)c(C)c1CN(Cc1nc(-c2cccc(Oc3ccccc3)c2)oc1C)C1CC1 — 0.31 log units lower, 6.41
- CNc1ccc(CNCc2cccc(-c3ccc(-c4nc5c(C)cccc5[nH]4)s3)c2)cc1 — 0.72 log units lower, 6.00
- O=C(/C=C/c1ccc(Cl)c(Cl)c1)NCCCCCN1CCC(NS(=O)(=O)c2cc(Cl)cc(Cl)c2)CC1 — 0.81 log units lower, 5.91
- CN(c1ccc(NC(=O)Nc2cc(C(C)(C)C)on2)cc1)c1ccnc(NCCOC(=O)Nc2cc(C(C)(C)C)on2)n1 — 0.60 log units lower, 6.12
- NC1CCCN(Cc2cccc(-c3ccc(-c4nc5ccccc5[nH]4)cc3)c2)C1 (stereo unspecified) — 0.58 log units lower, 6.14
- CC(C)CCN(Cc1cncn1Cc1cccc(C(F)(F)F)c1)C(=O)c1ccccc1C#N — 0.51 log units lower, 6.21
- Cc1ccc2cc(NC(=O)c3cccc(C(=O)Nc4ccc5nc(C)ccc5c4)n3)ccc2n1 — 0.79 log units lower, 5.93
- COc1cccc(CCNCc2ccc(-c3cccc(CNC4CCCC4)c3)cc2)c1 — 0.58 log units lower, 6.14
- Nc1ncc(-c2ccsc2)c2ccc(-c3cnc[nH]3)cc12 — 0.48 log units lower, 6.24
- COC(=O)c1cccc(CNCc2cccc(-c3ccc(-c4nc5c(C)cccc5[nH]4)cc3)c2)c1 — 0.23 log units lower, 6.49
- O=C(C=Cc1ccc(Cl)c(Cl)c1)NCCCCCN1CCC(CCCNS(=O)(=O)c2ccc(Br)cc2)CC1 — 0.77 log units lower, 5.95
- NC1=NC(c2ccccc2)(c2ccccc2)C(=O)N1CCOc1ccccc1 — 0.64 log units lower, 6.08
- O=C(NC1CCN(Cc2ccccc2)CC1)c1cc(-c2ccncc2)c(-c2ccc(Cl)c(O)c2)o1 — 0.33 log units lower, 6.39
- Nc1nc(N)c2cc(Sc3ccc4ccccc4c3)ccc2n1 — 0.98 log units higher, 7.70
- CC(=O)C1(c2ccccc2)CCN(CCC(NC(=O)c2cc(C(F)(F)F)cc(C(F)(F)F)c2)c2ccc(Cl)c(Cl)c2)CC1 (stereo unspecified) — 0.80 log units lower, 5.92
- CCN(CC)Cc1cc(NC(=O)c2ccccc2O)ccc1Oc1ccc(Cl)cc1 — 0.64 log units lower, 6.08

— PubChem BioAssay AID2305 (GlaxoSmithKline (GSK), 2010)
